Measurements: US20040023211A1, “System and method for optimizing drug theraphy for the treatment of diseases” (priority 2000, published 2004)
Read-outs that look alike come from different tables or passages of the source.

Columns and labels:
HIV-1 = type: in vivo, adults infected with HIV-1; settings: change in viral load at week 24, sigmoidal Emax model, p<0.05
Experimental: The normalized inhibitory quotient (NIQ) was determined as: [formula]
Where the IQ in an individual patient (IQpatient) was calculated as ratio of the patient's trough concentration (Cmin) to the susceptibility of the patient's virus to the drug, expressed as fold change compared to wild type virus (Virtual Phenotype). The IQpt was then related to the reference inhibitory quotient (IQref), in which the mean population trough concentration of the drug from the product label was divided by the cut-off value of the fold change for susceptible viruses.
For amprenavir, nelfinavir, and ritonavir, the concentration 12 hours after dosing was used as the Cmin. […]

[1] = Amprenavir trough plasma concentration (Cmin, 12 hours after dosing) by LC-MS/MS in treatment-experienced patients; type: in vivo, adults infected with HIV-1; settings: amprenavir 1200 mg bid with abacavir, efavirenz and ritonavir or nelfinavir, 17 patients
Experimental: Patients were enrolled into three parallel treatment groups that included abacavir 300 mg bid, amprenavir 1200 mg bid, and efavirenz 600 mg daily with either low dose ritonavir at 200 mg BID, high dose ritonavir at 500 mg bid, or nelfinavir 1250 mg bid.
Genotyping (VircoGEN II™, VIRCO) and VIRTUAL PHENOTYPE™ were performed on baseline samples. Viral load data were collected at baseline (mean of two pre-therapy samples) and at week 24. Serial pharmacokinetic samples were collected over 12 hours after week 3 for ritonavir-boosted regimens and after week 2 for nelfinavir-boosted regimens.
Amprenavir concentrations in plasma were determined by a validated LC-MS/MS method.
For amprenavir, nelfinavir, and ritonavir, the concentration 12 hours after dosing was used as the Cmin. For each drug, relationships between viral load change at week 24 and the Cmin, fold-change in resistance, and NIQ were fit to a sigmoidal maximum effect model.

HIV = settings: cited from earlier work; for % of patients with viral load below 400 copies/mL at week 24: lopinavir plus efavirenz and 2 NRTIs, 56 patients

| Compound | correlation of NIQ with outcome at 24 weeks (HIV-1) | Cmin, range [1] | % of patients with viral load below 400 copies/mL at week 24 (HIV; lopinavir IQ 4-15) [%] | % of patients with viral load below 400 copies/mL at week 24 (HIV; lopinavir IQ <4) [%] | % of patients with viral load below 400 copies/mL at week 24 (HIV; lopinavir IQ >15) [%] | correlation of trough concentration alone with virologic outcome (HIV; lopinavir trough concentration alone, week 24) |
| --- | --- | --- | --- | --- | --- | --- |
| CC(C)CN(C[C@@H](O)[C@H](Cc1ccccc1)NC(=O)O[C@H]1CCOC1)S(=O)(=O)c1ccc(N)cc1 [Amprenavir, amprenavir] | correlated with outcome at 24 weeks | (264-3453) ng/ml |  |  |  |  |
| Cc1cccc(C)c1OCC(=O)N[C@@H](Cc1ccccc1)[C@@H](O)C[C@H](Cc1ccccc1)NC(=O)[C@H](C(C)C)N1CCCNC1=O [lopinavir] |  |  | 80 | 70 | 100 | no correlation with virologic outcome was found |
